Active and inactive are the calls of the source. The rule behind the calls is not given here.

The assay deals with T1, P-selectin (Homo sapiens) (UniProt P16109).
T1 sequence (whole entry): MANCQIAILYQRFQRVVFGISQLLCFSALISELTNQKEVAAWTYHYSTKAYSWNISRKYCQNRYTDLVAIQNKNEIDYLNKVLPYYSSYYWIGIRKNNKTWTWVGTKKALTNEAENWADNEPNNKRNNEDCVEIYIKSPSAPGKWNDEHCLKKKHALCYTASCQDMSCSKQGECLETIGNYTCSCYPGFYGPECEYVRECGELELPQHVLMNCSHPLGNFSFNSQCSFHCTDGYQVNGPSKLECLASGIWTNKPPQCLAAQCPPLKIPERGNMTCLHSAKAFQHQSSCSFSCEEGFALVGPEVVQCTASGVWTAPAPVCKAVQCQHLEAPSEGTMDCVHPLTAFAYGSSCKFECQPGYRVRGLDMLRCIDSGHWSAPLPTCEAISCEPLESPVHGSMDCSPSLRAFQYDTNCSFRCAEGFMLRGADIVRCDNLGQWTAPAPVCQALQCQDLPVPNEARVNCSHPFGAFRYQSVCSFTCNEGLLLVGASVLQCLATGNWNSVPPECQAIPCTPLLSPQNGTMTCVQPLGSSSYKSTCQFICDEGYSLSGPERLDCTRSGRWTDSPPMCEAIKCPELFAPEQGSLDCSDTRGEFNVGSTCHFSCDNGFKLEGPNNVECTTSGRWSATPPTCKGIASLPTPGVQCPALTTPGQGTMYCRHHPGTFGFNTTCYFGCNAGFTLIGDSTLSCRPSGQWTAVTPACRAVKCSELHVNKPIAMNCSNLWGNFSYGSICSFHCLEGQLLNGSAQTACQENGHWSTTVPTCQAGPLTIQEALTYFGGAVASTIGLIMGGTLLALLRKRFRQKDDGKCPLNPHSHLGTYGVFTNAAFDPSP
Description: Inhibition of human HL60 cell adhesion to P-selectin coated on microtiter plates assessed as reduction in adhesion at 200 uM after 3 days by calcein-AM assay relative to untreated cells. On the set-up: scale not given: the % may be the effect or the level left. To be noted: HL-60. It is filed as cell-based.

With `COC(=O)[C@@]1(OC(C)=O)C[C@H](OC(C)=O)[C@@H](NC(=O)CCC(C)C)[C@H]([C@@H](OC(C)=O)[C@@H](COC(C)=O)OC(C)=O)O1`, the Activity is 44%.

Turning to `CCC(=O)N[C@H]1[C@H]([C@@H](OC(C)=O)[C@@H](COC(C)=O)OC(C)=O)O[C@@](OC(C)=O)(C(=O)OC)C[C@@H]1OC(C)=O`, the outcome was Active.

As to `COC(=O)[C@@]1(OC(C)=O)C[C@H](OC(C)=O)[C@@H](NC(=O)CCC(F)(F)F)[C@H]([C@@H](OC(C)=O)[C@@H](COC(C)=O)OC(C)=O)O1`, the Activity is 77%.

As to `COC(=O)[C@@]1(OC(C)=O)C[C@H](OC(C)=O)[C@@H](NC(=O)CC(C)C)[C@H]([C@@H](OC(C)=O)[C@@H](COC(C)=O)OC(C)=O)O1`, the Activity is 10%.

As to `COC(=O)[C@@]1(OC(C)=O)C[C@H](OC(C)=O)[C@@H](NC(=O)CC(F)(F)F)[C@H]([C@@H](OC(C)=O)[C@@H](COC(C)=O)OC(C)=O)O1`, the Activity was 62%.

The values are drawn from ChEMBL document CHEMBL1157814, “Modulation of cellular adhesion by glycoengineering” (J Med Chem, 2010).
